Reference: patent publication US20260191817A1, “FIBROBLAST MODULATORS IN STROMA-RICH TUMORS” (UNIVERSITEIT GENT, priority 2022, published 2026)
Entries after “also recorded” stand apart in the source; their conditions may differ.

What was measured:
[1] = 4T1-based intraductal model: tolerability; type: in vivo; conditions: oral in Medigel, 100 mg/kg three times per day; weekly evaluation across 6 w study period
Procedure: Compounds were dissolved in DMSO. The compound solution was subsequently aspired using a 1 mL syringe and an 18 G (pink) needle, including additional air to help eject all the solution and avoid retention of compound in the dead volume. The solution was injected into a Medigel in five parts at five different sites and a volume of gel was aspired and reinjected into the cup at the last site to rinse the dead volume of the syringe. The medication was shaken vigorously afterwards and visually examined for even dispersion of compound. Mice received freshly prepared cups with medication every 48 h and gels were placed in gel cup holders to avoid contact with bedding material and absorbent shavings in the mouse cage. The amount of Medigel given to the mice was weekly determined and depended on the mean mouse body weight and consumption. The dosing level was kept constant at 100 mg/kg three times per day.
Body weight and body temperature were measured every day during the first week p.i., and once a week during the following 5 weeks (i.e. up to 6 w p.i.) using a digital weighing scale and a rectal temperature probe, respectively. As a measurement of primary tumor growth, primary tumor volumes were weekly monitored using a digital caliper and 4T1-luc-derived bioluminescence in primary tumors was monitored at 1, 3 and 6 w p.i. using the IVIS lumina III system (PerkinElmer, Zaventem, Belgium). To perform in vivo imaging, mice were injected with 200 μl D-luciferin suspended in PBS (2 mg/100 μl; Gold Biotechnology, St. Louis, MO) and images were acquired 10 min later under inhalation anesthesia. To perform ex vivo imaging, mice were sedated with a mixture of 100 mg/kg ketamine (Ketamidor, Ecuphar nv/sa, Oostkamp, Belgium) and 10 mg/kg xylazine (Xylazini Hydrochloridum, Val d'HonyVerdifarm, Beringen, Belgium) and subsequently sacrificed through cervical dislocation. Images of bioluminescent signals in isolated primary tumors, spleens and metastases-bearing organs (including axillary lymph nodes, lungs and liver) were quickly acquired using the IVIS system. Primary tumors and spleens were also weighed using a digital weighing scale. Analysis of the in vivo and ex vivo bioluminescent signals was performed using the living image software 4.7.2.

[2] = system: CT5.3 hTERT colon CAFs; assay: AFM spheroid stiffness, CT5.3 hTERT colon CAFs; type: cell-based, human; conditions: 1 μM, 48 h
Excerpt: (§1) It is well established that an increased tumor and ECM stiffness is associated with a negative prognosis as it promotes tumor growth, progression, therapy resistance, immunosuppression and metastasis. Stiffness is chiefly regulated by the action of the CAFs in the TME. Stiffness modulation is, therefore, a fitting read-out of activity in a screen for CAF modulators. To assess stiffness modulation, the stiffness of spheroids of CAF cells treated with test compounds was interrogated using atomic force microscopy (AFM) indentation and compared with untreated cells. AFM measurement of the stiffness (elasticity) of cells and spheroids is a technique well-known to those skilled in the art. AFM measures the force required to create a given deflection, this read-out is also known as the Young's modulus. AFM is widely used in biology and cancer research: altered physicochemical properties of live cells serve as a read-out of altered complex physiological processes.
U-shaped, 384-well ULA plates (cat. no. MS-9384UZ, S-bio) were seeded with a suspension of cell-specific culture media with cells. Cells were allowed to form spheroids for an appropriate time under treatment conditions before use in experiments. Cell culture dishes (cat. no. 734-2814, VWR) were filled with collagen gel and placed at 37° C. for an appropriate time to allow solidification. […]

[3] = system: 13B2 hTERT, CT5.3 hTERT, HCA2 hTERT, MCF-7/6 and 4T1-Luc cells; assay: 3D CellTiter-Glo Cell Viability Assay (spheroids); type: cell-based; conditions: 3D spheroids; up to 100 μM; 48 h
Procedure: The half maximal inhibitory concentration (IC50) of A1 was evaluated using a CellTiter-Glo® 2.0 Cell Viability Assay (cat. no. G9243, Promega) and a CellTiter-Glo® 3D Cell Viability Assay (cat. no. G9681, Promega). 13B2 hTERT cells (2D: 2×10^5, 3D: 8×10^4) were plated in each well of a Nunc™ MicroWell™ 96-Well, Nunclon Delta-Treated, Flat-Bottom Microplate (cat. no. 167008, Thermo Fisher Scientific) for 2D experiments or 96-well ULA plate (cat. no. MS-9096UZ, S-bio) in a volume of 90 μL/well. A1 was serially diluted in the appropriate medium to 10× the final concentrations. For each treatment condition, 10 μL was added to 3 replicate wells (final concentrations ranging from 1-100 μM) and plates were incubated for 48 h.
The CellTiter-Glo Cell Viability Assay was performed according to manufacturer's instructions. Briefly, the plates and the CellTiter-Glo® Reagent were equilibrated to room temperature (RT). The CellTiter-Glo® Reagent was added to each well in a 1:1 (v/v) ratio. For 2D experiments, cell lysis was induced by placing the plates on an orbital shaker for 2 min, followed by stabilization of the luminescent signal for 10 min. […] Afterwards, the luminescence was measured using a Synergy™ HTX Multi-Mode Microplate Reader (BioTek). The IC50 value was determined using the Graphpad Prism software. […]

[4] = system: CAF03 glioblastoma CAFs; assay: AFM spheroid stiffness, CAF03 glioblastoma CAFs; type: cell-based; conditions: 1 μM, 48 h
Excerpt: as §1
U-shaped, 384-well ULA plates (cat. no. MS-9384UZ, S-bio) were seeded with a suspension of cell-specific culture media with cells. Cells were allowed to form spheroids for an appropriate time under treatment conditions before use in experiments. Cell culture dishes (cat. no. 734-2814, VWR) were filled with collagen gel and placed at 37° C. for an appropriate time to allow solidification. For each condition, spheroids were pooled in one cell culture dish. The medium was removed (stored at 37° C.) to promote attachment of the bottom of each spheroid to the collagen gel. The cell culture dishes were incubated at 37° C. After the incubation period, the stored medium was carefully (prevent detachment of spheroids) added to the dishes.
Mechanical measurements were performed using an atomic force microscope. To indent the spheroids an in-house made colloidal probe was used. Force curves were collected using an appropriate setpoint and probe speed (depending on the stiffness of the spheroids). On each spheroid multiple force curves were collected. Collected curves were then processed using the JPK DP software. Young's modulus was extracted from the force curves. All experiments were performed in biological triplicate.
To generate 3D cultures mimicking the complexity and pathophysiology of in vivo tumors, spheroids were used (cfr. point 4). Spheroids are considered to better simulate cellular heterogeneity, nutrient and oxygen gradients, cell-cell interactions, cell-matrix interactions, gene expression profiles, stromal interactions, therapeutic responses, multicellular resistance, drug penetration and anti-apoptotic signaling.

| Compound | Body temperature [1] | Body weight [1] | spheroid stiffness [2] | response of cells cultured as spheroids (viability) [3] | spheroid stiffness [4] |
| --- | --- | --- | --- | --- | --- |
| COc1cc(C(=O)/C=C/c2ccc(F)cc2)cc(OC)c1OC [Compound A1, 3-(4-Fluorophenyl)-1-(3,4,5-trimethoxyphenyl)prop2-en-1-one] | no significant variation | no significant variation | decreased | no response | decreased; also recorded: active |
| COc1cc2oc(-c3ccc(F)cc3)cc(=O)c2c(OC)c1OC [Compound B1, 2-(4-Fluorophenyl)-5,6,7-trimethoxy-4H-chromen-4-one] | no significant variation | no significant variation | decreased | no response | active |
